# According to PubChem BioAssay (NCI):
#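 Five concentrations, 48 hours, 96-well plates. GI50 marks 50% less growth. At the TGI there is no net growth.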
# Legend:
# Assay in all cases: NCI-60 cell line screen, 48 h
# 786-0 renal = tested on: 786-0 renal
# A498 renal = tested on: A498 renal
# ACHN renal = tested on: ACHN renal
# BT-549 breast = tested on: BT-549 breast
# CAKI-1 renal = tested on: CAKI-1 renal
# CCRF-CEM leukemia = tested on: CCRF-CEM leukemia
# COLO 205 colon = tested on: COLO 205 colon
# DU-145 prostate = tested on: DU-145 prostate
# EKVX NSCLC = tested on: EKVX NSCLC
# HCC-2998 colon = tested on: HCC-2998 colon
# HCT-15 colon = tested on: HCT-15 colon
# HL-60(TB) leukemia = tested on: HL-60(TB) leukemia
# HOP-62 NSCLC = tested on: HOP-62 NSCLC
# HOP-92 NSCLC = tested on: HOP-92 NSCLC
# HS 578T breast = tested on: HS 578T breast
# HT29 colon = tested on: HT29 colon
# IGROV1 ovarian = tested on: IGROV1 ovarian
# KM12 colon = tested on: KM12 colon
# LOX IMVI melanoma = tested on: LOX IMVI melanoma
# MALME-3M melanoma = tested on: MALME-3M melanoma
# MDA-MB-231 breast = tested on: MDA-MB-231 breast
# MDA-MB-435 = tested on: MDA-MB-435
# MDA-MB-468 breast = tested on: MDA-MB-468 breast
# NCI-H226 lung = tested on: NCI-H226 lung
# NCI-H23 lung = tested on: NCI-H23 lung
# NCI-H522 lung = tested on: NCI-H522 lung
# NCI/ADR-RES ovarian = tested on: NCI/ADR-RES ovarian
# OVCAR-3 ovarian = tested on: OVCAR-3 ovarian
# OVCAR-4 ovarian = tested on: OVCAR-4 ovarian
# OVCAR-5 ovarian = tested on: OVCAR-5 ovarian
# OVCAR-8 ovarian = tested on: OVCAR-8 ovarian
# PC-3 prostate = tested on: PC-3 prostate
# RXF 393 renal = tested on: RXF 393 renal
# SF-268 CNS = tested on: SF-268 CNS
# SF-295 CNS = tested on: SF-295 CNS
# SF-539 CNS = tested on: SF-539 CNS
# SK-MEL-2 melanoma = tested on: SK-MEL-2 melanoma
# SK-MEL-28 melanoma = tested on: SK-MEL-28 melanoma
# SK-MEL-5 melanoma = tested on: SK-MEL-5 melanoma
# SK-OV-3 ovarian = tested on: SK-OV-3 ovarian
# SN12C renal = tested on: SN12C renal
# SNB-19 CNS = tested on: SNB-19 CNS
# SNB-75 CNS = tested on: SNB-75 CNS
# TK-10 renal = tested on: TK-10 renal
# UACC-257 melanoma = tested on: UACC-257 melanoma
# UACC-62 melanoma = tested on: UACC-62 melanoma
# UO-31 renal = tested on: UO-31 renal
structure (smiles),measurement,setting,value
Cn1cc(/C=N/Nc2ccnc3cc(Cl)ccc23)c2ccccc21,GI50,786-0 renal,274 nM
same,TGI,786-0 renal,717 nM
same,GI50,A498 renal,1970 nM
same,TGI,A498 renal,3.5 µM
same,GI50,ACHN renal,1370 nM
same,TGI,ACHN renal,2670 nM
same,GI50,BT-549 breast,1620 nM
same,TGI,BT-549 breast,3.11 µM
same,GI50,CAKI-1 renal,1300 nM
same,TGI,CAKI-1 renal,2650 nM
same,GI50,CCRF-CEM leukemia,281 nM
same,TGI,CCRF-CEM leukemia,799 nM
same,GI50,COLO 205 colon,1210 nM
same,TGI,COLO 205 colon,2660 nM
same,GI50,DU-145 prostate,978 nM
same,TGI,DU-145 prostate,2400 nM
same,GI50,EKVX NSCLC,1260 nM
same,TGI,EKVX NSCLC,2580 nM
same,GI50,HCC-2998 colon,669 nM
same,TGI,HCC-2998 colon,1950 nM
same,GI50,HCT-15 colon,293 nM
same,TGI,HCT-15 colon,823 nM
same,GI50,HL-60(TB) leukemia,205 nM
same,TGI,HL-60(TB) leukemia,466 nM
same,GI50,HOP-62 NSCLC,1520 nM
same,TGI,HOP-62 NSCLC,3.13 µM
same,GI50,HOP-92 NSCLC,1420 nM
same,TGI,HOP-92 NSCLC,3000 nM
same,GI50,HS 578T breast,1480 nM
same,TGI,HS 578T breast,3.49 µM
same,GI50,HT29 colon,185 nM
same,TGI,HT29 colon,338 nM
same,GI50,IGROV1 ovarian,1410 nM
same,TGI,IGROV1 ovarian,2820 nM
same,GI50,KM12 colon,1650 nM
same,TGI,KM12 colon,3.15 µM
same,GI50,LOX IMVI melanoma,175 nM
same,TGI,LOX IMVI melanoma,323 nM
same,GI50,MALME-3M melanoma,1580 nM
same,TGI,MALME-3M melanoma,3.02 µM
same,GI50,MDA-MB-231 breast,202 nM
same,TGI,MDA-MB-231 breast,488 nM
same,GI50,MDA-MB-435,609 nM
same,TGI,MDA-MB-435,1910 nM
same,GI50,MDA-MB-468 breast,239 nM
same,TGI,MDA-MB-468 breast,563 nM
same,GI50,NCI-H226 lung,1500 nM
same,TGI,NCI-H226 lung,3.25 µM
same,GI50,NCI-H23 lung,1210 nM
same,TGI,NCI-H23 lung,2520 nM
same,GI50,NCI-H522 lung,1320 nM
same,TGI,NCI-H522 lung,2750 nM
same,GI50,NCI/ADR-RES ovarian,1040 nM
same,TGI,NCI/ADR-RES ovarian,2480 nM
same,GI50,OVCAR-3 ovarian,206 nM
same,TGI,OVCAR-3 ovarian,468 nM
same,GI50,OVCAR-4 ovarian,531 nM
same,TGI,OVCAR-4 ovarian,1200 nM
same,GI50,OVCAR-5 ovarian,1680 nM
same,TGI,OVCAR-5 ovarian,3.06 µM
same,GI50,OVCAR-8 ovarian,1630 nM
same,TGI,OVCAR-8 ovarian,3.29 µM
same,GI50,PC-3 prostate,1150 nM
same,TGI,PC-3 prostate,2670 nM
same,GI50,RXF 393 renal,1530 nM
same,TGI,RXF 393 renal,3000 nM
same,GI50,SF-268 CNS,1720 nM
same,TGI,SF-268 CNS,3.59 µM
same,GI50,SF-295 CNS,1230 nM
same,TGI,SF-295 CNS,2530 nM
same,GI50,SF-539 CNS,181 nM
same,TGI,SF-539 CNS,342 nM
same,GI50,SK-MEL-2 melanoma,1600 nM
same,TGI,SK-MEL-2 melanoma,3.04 µM
same,GI50,SK-MEL-28 melanoma,1700 nM
same,TGI,SK-MEL-28 melanoma,3.09 µM
same,GI50,SK-MEL-5 melanoma,1450 nM
same,TGI,SK-MEL-5 melanoma,2770 nM
same,GI50,SK-OV-3 ovarian,1390 nM
same,TGI,SK-OV-3 ovarian,2900 nM
same,GI50,SN12C renal,1520 nM
same,TGI,SN12C renal,2920 nM
same,GI50,SNB-19 CNS,1050 nM
same,TGI,SNB-19 CNS,2490 nM
same,GI50,SNB-75 CNS,639 nM
same,TGI,SNB-75 CNS,2180 nM
same,GI50,TK-10 renal,2520 nM
same,TGI,TK-10 renal,4.04 µM
same,GI50,UACC-257 melanoma,1550 nM
same,TGI,UACC-257 melanoma,2970 nM
same,GI50,UACC-62 melanoma,1540 nM
same,TGI,UACC-62 melanoma,2970 nM
same,GI50,UO-31 renal,1240 nM
same,TGI,UO-31 renal,2520 nM
